Assay results published in publication PMC5013292, “A Putative Bacterial ABC Transporter Circumvents the Essentiality of Signal Peptidase” (mBio, 2016).

What was measured:
[1] = test system: cro/cI(−14G→T)(pMK4) (GNE0096); assay: MIC fold increase, GNE0096; type: cell-based, S. aureus
Protocol: (§1) MICs were determined according to the standard protocol from the Clinical and Laboratory Standards Institute ([23]). Briefly, S. aureus bacteria were harvested from regular MHA plates that had been cultured for ~20 h at 37°C. Serial dilutions of compound 103 were incubated with bacteria at approximately 10^6 CFU (CFU)/ml in MHB in round-bottom 96 well plates (Corning, Corning, NY) for 22 h at 37°C. MICs were determined by the lowest concentration of compound 103 showing absence of growth by visual inspection.

[2] = test system: cro/cI(M1V)(pMK4) (GNE0107); assay: MIC fold increase, GNE0107; type: cell-based, S. aureus
Protocol: as §1

[3] = test system: Δmcr cro/cI(Q16stop) (GNE0173); assay: MIC fold increase, GNE0173; type: cell-based, S. aureus
Protocol: as §1
(§2) To generate mutations in SAUSA300_0351, _0352, and _0353 genes by homologous recombination, we transformed USA300 Δmcr using targeting constructs created in the vector pIMAY ([24]). To generate mutations in SAUSA300_0351, _0352, and _0353 genes in a cro/cI mutant background, we selected colonies from USA300 Δmcr cultured on plates containing fourfold the MIC of compound 103. Sequencing of PCR products of the cro/cI gene from resistant colonies yielded a clone with a Q16stop codon mutation in cro/cI (strain GNE0173). We further mutated SAUSA300_0351, _0352, and _0353 in this USA300 Δmcr cro/cI (Q16stop) clone to study the contributions of these three genes to cro/cI-mediated resistance.

[4] = test system: SpsB V167F mutant of USA300 Δmcr cro/cI(Q16stop) SAUSA300_0352(K44A); assay: MIC fold increase, SpsB V167F mutant; type: cell-based, S. aureus
Protocol: as §1

[5] = test system: SpsB H69L mutant of USA300 Δmcr cro/cI(Q16stop) SAUSA300_0352(K44A); assay: MIC fold increase, SpsB H69L mutant; type: cell-based, S. aureus
Protocol: as §1

[6] = test system: 102 globally diverse clinical S. aureus isolates; assay: MIC, global panel of 102 clinical isolates; type: cell-based; conditions: among a panel of 102 clinical S. aureus isolates
Description: Wild-type clinical S. aureus strains were obtained from the Network on Antibiotic Resistance in Staphylococcus aureus (NARSA/BEI) program. MRSA strain USA300 refers throughout this paper to strain NRS384 from NARSA/BEI. A global panel of 102 clinical S. aureus isolates was selected from the collection of International Health Management Associates, Inc. (IHMA; Schaumburg, IL), based on diversity of geographic locations, antibiotic resistance profiles, and sites of infection. Bacteria were cultured on cation-adjusted Mueller-Hinton agar (MHA) plates or in cation-adjusted Mueller-Hinton broth (MHB). Bacterial strains used in this study are listed in Table S5 in the supplemental material.
as §1

[7] = test system: cro/cI(−62G→A)(pcro/cI-cro/cI) (GNE0100); assay: MIC fold increase, GNE0100; type: cell-based, S. aureus
Protocol: as §1

[8] = test system: SpsB V167D mutant of USA300 Δmcr cro/cI(Q16stop) SAUSA300_0352(K44A); assay: MIC fold increase, SpsB V167D mutant; type: cell-based, S. aureus
Protocol: as §1

[9] = test system: SpsB V49L mutant of USA300 Δmcr cro/cI(Q16stop) SAUSA300_0352(K44A); assay: MIC fold increase, SpsB V49L mutant; type: cell-based, S. aureus
Protocol: as §1

[10] = test system: Δmcr cro/cI(Q16stop) ΔSAUSA300_0353 (GNE0210); assay: MIC fold increase, GNE0210; type: cell-based, S. aureus
Protocol: as §1, §2

[11] = test system: SpsB Y30D mutant of USA300 Δmcr cro/cI(Q16stop) SAUSA300_0352(K44A); assay: MIC fold increase, SpsB Y30D mutant; type: cell-based, S. aureus
Protocol: as §1

[12] = test system: USA300 SAUSA300_0352(K44A) (strain GNE0174); assay: Frequency of spontaneous resistance, GNE0174; type: cell-based, S. aureus; conditions: K44A in SAUSA300_0352 in WT USA300 background; fourfold MIC; 37°C, 2 days; approximately 2 orders of magnitude reduced
Protocol: To determine the frequency of spontaneous resistance, suspensions containing approximately 5 × 10^9 CFU of S. aureus were cultured on MHA plates containing compound 103 at fourfold the MIC; serial dilutions were cultured in parallel on regular MHA to determine the actual number of CFU (input). The frequency of spontaneous resistance was defined as the number of viable colonies able to grow in the presence of compound 103 after culture at 37°C for 2 days (output) divided by input.
as §2

[13] = test system: Δmcr cro/cI(Q16stop) ΔSAUSA300_0351 (GNE0209); assay: MIC fold increase, GNE0209; type: cell-based, S. aureus
Protocol: as §1, §2

[14] = test system: S. aureus USA300 SpsB-high; assay: MIC, USA300 SpsB-high; type: cell-based; conditions: result in words
Protocol: as §1
A strain of USA300 Δmcr overexpressing SpsB (USA300 SpsB-high; GNE0028) was engineered by cloning SpsB under the constitutive sarA promoter into vector pMK4, resulting in SpsB expression that was ~20-fold higher than the wild-type level as determined by Western blotting. A USA300 Δmcr strain that underexpresses SpsB (USA300 SpsB-low; […]) was generated by genomic incorporation of spsB under the isopropyl-β-D-thiogalactopyranoside (IPTG)-sensitive promoter spac; without IPTG, this strain expresses SpsB at ~5% of the wild-type level as determined by Western blotting.

[15] = molecular target: T1, full length recombinant SpsB (Staphylococcus aureus, UniProt P0A070); assay: Enzymatic activity of recombinant SpsB; type: biochemical, S. aureus; conditions: result in words; Fig. S1C
T1 construct: 500 pM full length recombinant SpsB from S. aureus
Protocol: White 384-well low-volume polypropylene assay plates (Thermo Scientific, Waltham, MA) were pre-spotted with 25 nL per well of compound 103, serially diluted in DMSO, using an Echo instrument (Labcyte, Sunnyvale, CA). A 10 µL reaction in PBS (pH 7.4) containing 0.1% Triton X-100 was then initiated by adding 500 pM full length recombinant SpsB from S. aureus plus 10 µM fluorogenic peptide substrate Dabcyl-βAla-KPAKAAE-Edans (GL Biochem, Boston, MA). Substrate cleavage separates the Dabcyl quencher from the Edans fluorophore, resulting in 490nm fluorescence (340nm excitation). The reaction was read kinetically using an M-1000 plate reader (Tecan, Morrisville, NC), plotting the initial slope (rate) of fluorescence generation versus inhibitor concentration to derive IC50 values.

T1 sequence (P0A070 whole entry): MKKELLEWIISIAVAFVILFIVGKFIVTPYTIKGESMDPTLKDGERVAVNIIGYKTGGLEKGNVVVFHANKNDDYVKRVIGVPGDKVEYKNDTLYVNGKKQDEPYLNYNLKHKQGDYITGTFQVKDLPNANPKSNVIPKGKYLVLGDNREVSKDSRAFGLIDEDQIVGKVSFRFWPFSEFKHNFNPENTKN

**Q.** With `CCCCc1ccc(-c2ccc(C(=O)N[C@@H](CCCCN)C(=O)N(C)[C@@H]3C(=O)N[C@@H](C)C(=O)N[C@H](C(=O)NCC(C)C(=O)O)Cc4ccc(O)c(c4)-c4cc3ccc4O)cc2)cc1` (stereo partly drawn) [Compound 103] as the molecule, how does the “MIC of compound 103 (fold increase versus MIC for USA300 WT)” value [1] read?
**A.** Its value is greater than 32 fold.

**Q.** And the “MIC of compound 103 (fold increase versus MIC for USA300 WT)” value [2]?
**A.** The value was greater than 32 fold.

**Q.** What about the “MIC of compound 103 (fold increase versus MIC for USA300 WT)” value [3] of the same molecule?
**A.** The value was greater than 32 fold.

**Q.** And the “MIC of compound 103 (fold increase versus MIC for USA300 WT)” value [4]?
**A.** Its value is 8 fold.

**Q.** What about the “MIC of compound 103 (fold increase versus MIC for USA300 WT)” value [5] of the same molecule?
**A.** Its value is 4 fold.

**Q.** And the “isolates resistant to compound 103” value [6]?
**A.** The value was 7 isolates.

**Q.** What about the “MIC of compound 103 (fold increase versus MIC for USA300 WT)” value ([7]; GNE0100) of the same molecule?
**A.** The value was greater than 32 fold.

**Q.** And the resistance phenotype ([7]; GNE0100, plasmid-encoded WT cro/cI, result in words)?
**A.** The resistance phenotype was “could not complement the phenotype”.

**Q.** And the “MIC of compound 103 (fold increase versus MIC for USA300 WT)” value [8]?
**A.** Its value is 8 fold.

**Q.** And the “MIC of compound 103 (fold increase versus MIC for USA300 WT)” value [9]?
**A.** Its value is 4 fold.

**Q.** And the “MIC of compound 103 (fold increase versus MIC for USA300 WT)” value ([10]; GNE0210)?
**A.** Its value is 1.0 fold.

**Q.** And the resistance phenotype ([10]; GNE0210, deletion of SAUSA300_0353, result in words)?
**A.** Its resistance phenotype is “reversed the resistant phenotype”.

**Q.** What about the “MIC of compound 103 (fold increase versus MIC for USA300 WT)” value [11] of the same molecule?
**A.** The value was 8 fold.

**Q.** What about the “frequency of spontaneous resistance” value [12] of the same molecule?
**A.** The value was 2 × 10^−9.

**Q.** What about the “MIC of compound 103 (fold increase versus MIC for USA300 WT)” value ([13]; GNE0209) of the same molecule?
**A.** The value was greater than 32 fold.

**Q.** What about the resistance phenotype ([13]; GNE0209, deletion of SAUSA300_0351, result in words) of the same molecule?
**A.** Its resistance phenotype is “had no effect on the resistance phenotype”.

**Q.** What about the “MIC for an SpsB-overexpressing strain” value [14] of the same molecule?
**A.** Its value is “increased MIC”.

**Q.** What about the “inhibition of enzymatic activity of recombinant SpsB” value [15] of the same molecule?
**A.** Its value is “dose dependently inhibited”.
